In patent publication US5604242A, “Heterocyclic chemistry” (Novo Nordisk A/S, priority 1993, dated 1997):
Where a name gives a salt, the structure may show the parent alone.

Test system: not given
Test: not given
Settings: background, in words; cited from earlier work

| Structure (SMILES) | ability to cross the blood-brain barrier |
| --- | --- |
| O=C(O)C1CCCNC1 (stereo not drawn) [nipecotic acid, 3-piperidinecarboxylic acid] | unable to cross the blood-brain barrier |

Test system: [^3 H]-GABA uptake
Test: in vitro inhibition of [3H]-GABA uptake (method of Fjalland), rat cortical tissue homogenate
Type: biochemical, Male wistar rat
Settings: 40 mM tris HCl buffer pH 7.5, 60 minutes at 30° C.
Experimental: Values for in vitro inhibition of [^3 H]-GABA uptake for the invention compounds were assessed essentially by the method of Fjalland (Acta Pharmacol. Toxicol. 1978, 42, 73-76). Male wistar rat cortical tissue was gently homogenized by hand using a glass/PTFE homogenizer in 10 volumes of 0.32M sucrose. Incubation was performed in a 40 mM tris HCl buffer (pH 7.5 at 30° C.) containing […], 4 mM MgSO4, […] and 10 mM glucose, for 60 minutes at 30° C. Values for inhibition of GABA uptake for some representative compounds are recorded in Table I.

| IC50 [nM] | Structure (SMILES) |
| --- | --- |
| 4500 | O=C(O)C1CCCN(CCOCCCc2ccccc2)C1 (stereo not drawn) [Example 1, 1-(2-(3-Phenyl-1-propyloxy)ethyl)-3-piperidinecarboxylic acid hydrochloride] |
| 325 | O=C(O)[C@@H]1CCCN(CCOCc2ccccc2Cc2ccccc2)C1 [Example 2, (R)-1-(2-(2-Benzylbenzyloxy)ethyl)-3-piperidinecarboxylic acid hydrochloride] |
| 6400 | O=C(O)[C@@H]1CCCN(CCOCc2ccc3ccccc3c2-c2ccccc2)C1 [Example 3, (R)-1-(2-((1-Phenyl-2-naphthyl)methoxy)ethyl)-3-piperidinecarboxylic acid hydrochloride] |
| 338 | O=C(O)[C@@H]1CCCN(CCOCc2ccccc2-c2ccccc2)C1 [Example 4, (R)-1-(2-(2-Phenylbenzyloxy)ethyl)-3-piperidinecarboxylic acid hydrochloride] |
| 495 | O=C(O)[C@@H]1CCCN(CCOC/C(=C/c2ccccc2)c2ccccc2)C1 [Example 5, E-(R)-1-(2-((2,3-Diphenyl-2-propen-1-yl)oxy)ethyl)-3-piperidinecarboxylic acid hydrochloride] |
| 2000 | O=C(O)[C@@H]1CCCN(CCOC/C(=C\c2ccccc2)c2ccccc2)C1 [Example 6, Z-(R)-1-(2-((2,3-Diphenyl-2-propen-1-yl)oxy)ethyl)-3-piperidinecarboxylic acid hydrochloride] |

Test system: GABA uptake
Test: not given
Settings: Yunger et al., J.Pharm.Exp.Ther. 1984, 228, 109; cited from earlier work

| Structure (SMILES) | oral activity as inhibitor of GABA uptake |
| --- | --- |
| O=C(O)C1CCCN(CCC=C(c2ccccc2)c2ccccc2)C1 (stereo not drawn) [SK&F 89976A, N-(4,4-diphenyl-3-buten-1-yl)nipecotic acid] | orally active inhibitors of GABA uptake |
| O=C(O)C1=CCCN(CCC=C(c2ccccc2)c2ccccc2)C1 [SK&F 100330A, N-(4,4-diphenyl-3-buten-1-yl)guvacine] | orally active inhibitors of GABA uptake |
| O=C(O)CC1CCN(CCC=C(c2ccccc2)c2ccccc2)C1 (stereo not drawn) [SK&F 100561, N-(4,4-diphenyl-3-buten-1-yl)-homo-β-proline] | orally active inhibitors of GABA uptake |
| O=C(O)C1CCCN(CCC=C(c2ccccc2)c2cccs2)C1 (stereo not drawn) [SK&F 100604J, N-(4-phenyl-4-(2-thienyl)-3-buten-1-yl)nipecotic acid] | orally active inhibitors of GABA uptake |

Same assay, conditions: background, in words; cited from earlier work

| Structure (SMILES) | inhibition of GABA uptake from the synaptic cleft into presynaptic nerve terminals and glial cells |
| --- | --- |
| O=C(O)C1CCCNC1 (stereo not drawn) [nipecotic acid, 3-piperidinecarboxylic acid] | well-known and potent inhibitor of GABA uptake |
